In patent US5473103A, “Biopolymers derived from hydrolyzable diacid fats” (Yissum Research Development Co. of the Hebrew University of …, priority 1993, dated 1995):
Where a name gives a salt, the structure may show the parent alone.

Tested on: esterase from porcine liver
Experiment: in vitro enzymatic degradation by esterase
Format: in vitro ADME
Conditions: 200 mg monomer, 50 units esterase, 24 hours, 37° C., 1H NMR
Description: The enzymatic degradation of these new monomers were compared to those of the oligomerized fatty acids. The monomers RAM, HSAM, HSAS, FAD, and FAT (200 mg) were mixed in a solution containing esterase (2 ml, containing 50 units of esterase from porcine liver, Sigma Chemical Company, St. Louis, Missouri) and were incubated for 24 hours at 37° C. The monomers or their degradation products were extracted with chloroform and analyzed by ^1 H NMR. […] The RAM, and HSAS monomers contained about 10% ricinoleic acid or 12-hydroxy stearic acid, respectively.

Row | Structure (SMILES) | ricinoleic acid or 12-hydroxy stearic acid formed
1 | CCCCCCC(CCCCCCCCCCC(=O)O)OC(=O)CCC(=O)O (centres unmarked) [HSAS, 12-hydroxy stearic acid succinate] | about 10%
2 | CCCCCC[C@H](C/C=C\CCCCCCCC(=O)O)OC(=O)/C=C\C(=O)O [RAM, ricinoleic acid maleate] | about 10%
